Results published in ChEMBL document CHEMBL1795213, “Design, synthesis and biological activity of novel peptidyl benzyl ketone FVIIa inhibitors” (Bioorg Med Chem Lett, 2011).
In brackets after ≈: the same amount, converted by molar mass.

Legend:
[1] = Solubility of the compound in buffer; format: physicochemical
Coagulation factor VII [2] = molecular target: T1, Coagulation factor VII (Homo sapiens, UniProt P08709); experiment: Inhibition of recombinant F7a using S-2288 as substrate after 15 mins by competitive binding assay
T1 sequence (P08709 whole entry): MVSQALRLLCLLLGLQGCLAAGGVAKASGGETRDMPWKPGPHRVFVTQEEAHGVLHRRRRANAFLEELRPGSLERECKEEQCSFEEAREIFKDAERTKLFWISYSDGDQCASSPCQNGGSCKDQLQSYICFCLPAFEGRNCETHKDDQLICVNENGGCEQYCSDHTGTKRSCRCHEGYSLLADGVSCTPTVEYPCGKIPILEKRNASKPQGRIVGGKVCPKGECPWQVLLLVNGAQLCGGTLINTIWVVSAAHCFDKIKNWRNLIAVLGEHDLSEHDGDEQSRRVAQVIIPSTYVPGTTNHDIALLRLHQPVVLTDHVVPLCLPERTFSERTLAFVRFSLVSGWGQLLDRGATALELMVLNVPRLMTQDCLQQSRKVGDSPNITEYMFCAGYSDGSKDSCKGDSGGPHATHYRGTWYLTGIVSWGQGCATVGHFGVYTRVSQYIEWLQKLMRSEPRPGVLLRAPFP

Coagulation factor VII [3] = molecular target: T1, Coagulation factor VII; experiment: Inhibition of recombinant F7a using S-2288 as substrate after 15 mins by linear fitting analysis
Prothrombin [4] = molecular target: T2, Prothrombin (Homo sapiens, UniProt P00734); experiment: Inhibition of thrombin using S-2288 as substrate after 15 mins by competitive binding assay relative to control
Coagulation factor X [5] = molecular target: T3, Coagulation factor X (Homo sapiens, UniProt P00742); experiment: Inhibition of F10a using S-2288 as substrate after 15 mins by competitive binding assay relative to control
[6] = molecular target: T4, Coagulation factor VII (Homo sapiens) (UniProt P08709); experiment: Inhibition of recombinant F7a using S-2288 as substrate after 15 mins by competitive binding assay relative to control
T4 sequence (whole entry): T1 sequence (P08709 whole entry)

Coagulation factor X [7] = molecular target: T3, Coagulation factor X; experiment: Inhibition of F10a using S-2288 as substrate after 15 mins by competitive binding assay
Prothrombin [8] = molecular target: T2, Prothrombin; experiment: Inhibition of thrombin using S-2288 as substrate after 15 mins by competitive binding assay

| SMILES | solubility [1] | IC50 (Coagulation factor VII [2]) | further results |
| --- | --- | --- | --- |
| N=C(N)NCCC[C@H](NC(=O)[C@H](Cc1ccccc1)NC(=O)[C@@H](Cc1ccccc1)NC(=O)OCc1ccccc1)C(=O)Cc1ccccc1 | 400 µM (≈ 271 µg/mL) | 16 µM | Ki (Coagulation factor VII [3]): 8 µM |
| N=C(N)NCCC[C@H](NC(=O)[C@H](Cc1ccccc1)NC(=O)[C@H](Cc1ccccc1)NC(=O)OCc1ccccc1)C(=O)Cc1ccccc1 | 400 µM (≈ 271 µg/mL) | 109 µM | Ki (Coagulation factor VII [3]): 89 µM |
| C[C@@H](O)[C@H](NC(=O)[C@@H](N)Cc1ccc(O)cc1)C(=O)N[C@@H](CCCCNC(=N)N)C(=O)Cc1ccccc1 |  |  | inhibition (Prothrombin [4]): 5.5%; inhibition (Coagulation factor X [5]): 30.4%; inhibition [6]: 18.9% |
| Cc1c(C)c(S(=O)(=O)NC(=N)NCCCC[C@H](NC(=O)[C@H](Cc2ccccc2)NC(=O)[C@@H](Cc2ccccc2)NC(=O)OCc2ccccc2)C(=O)Cc2ccccc2)c(C)c2c1OC(C)(C)CC2 | 400 µM (≈ 383 µg/mL) |  |  |
| Cc1c(C)c(S(=O)(=O)NC(=N)NCCC[C@H](NC(=O)[C@H](Cc2ccccc2)NC(=O)OC(C)(C)C)C(=O)Cc2ccccc2)c(C)c2c1OC(C)(C)CC2 | 400 µM (≈ 305 µg/mL) |  |  |
| Cc1c(C)c(S(=O)(=O)NC(=N)NCCCC[C@H](NC(=O)[C@H](CC(C)C)NC(=O)[C@H](Cc2ccc(OCc3ccccc3)cc2)NS(=O)(=O)Cc2ccccc2)C(=O)Cc2ccccc2)c(C)c2c1OC(C)(C)CC2 | 400 µM (≈ 420 µg/mL) |  |  |
| CC(=O)N[C@@H](Cc1ccc(O)cc1)C(=O)N[C@H](C(=O)N[C@@H](CCCNC(=N)N)C(=O)Cc1ccccc1)[C@@H](C)O | 400 µM (≈ 222 µg/mL) | > 1340 µM |  |
| N=C(N)NCCC[C@H](NC(=O)[C@H](Cc1ccccc1)NC(=O)[C@@H](Cc1ccccc1)NS(=O)(=O)Cc1ccccc1)C(=O)Cc1ccccc1 | 400 µM (≈ 279 µg/mL) | 640 µM |  |
| CC(=O)N[C@@H](Cc1ccccc1)C(=O)N[C@@H](Cc1ccccc1)C(=O)N[C@@H](CCCCNC(=N)NS(=O)(=O)c1c(C)c(C)c2c(c1C)CCC(C)(C)O2)C(=O)Cc1ccccc1 | 400 µM (≈ 346 µg/mL) |  |  |
| C[C@@H](O)[C@H](NC(=O)[C@@H](N)Cc1ccc(O)cc1)C(=O)N[C@@H](CCCNC(=N)N)C(=O)Cc1ccccc1 | 400 µM (≈ 205 µg/mL) | > 1340 µM |  |
| C[C@@H](O)[C@H](NC(=O)[C@@H](N)Cc1ccc(O)cc1)C(=O)N[C@@H](CCCCN=C(N)N)C(=O)Cc1ccccc1 |  |  | IC50 (Coagulation factor X [7]): > 1340 µM; IC50 (Prothrombin [8]): > 1340 µM |
| Cc1c(C)c(S(=O)(=O)NC(=N)NCCC[C@H](NC(=O)[C@@H](NC(=O)OC(C)(C)C)[C@@H](C)OCc2ccccc2)C(=O)Cc2ccccc2)c(C)c2c1OC(C)(C)CC2 | 400 µM (≈ 322 µg/mL) |  |  |

Continued, in another order:

| solubility [1] | IC50 (Coagulation factor VII [2]) | SMILES | further results |
| --- | --- | --- | --- |
| 400 µM (≈ 291 µg/mL) |  | Cc1c(C)c(S(=O)(=O)NC(=N)NCCC[C@H](NC(=O)[C@H](CC(C)C)NC(=O)OC(C)(C)C)C(=O)Cc2ccccc2)c(C)c2c1OC(C)(C)CC2 |  |
| 400 µM (≈ 451 µg/mL) |  | Cc1c(C)c(S(=O)(=O)NC(=N)NCCCC[C@H](NC(=O)[C@@H](NC(=O)[C@H](Cc2ccc(OCc3ccccc3)cc2)NS(=O)(=O)Cc2ccccc2)[C@@H](C)OCc2ccccc2)C(=O)Cc2ccccc2)c(C)c2c1OC(C)(C)CC2 |  |
| 400 µM (≈ 217 µg/mL) | > 1480 µM | N=C(N)NCCC[C@H](NC(=O)[C@H](Cc1ccccc1)NC(=O)[C@@H](N)Cc1ccccc1)C(=O)Cc1ccccc1 |  |
| 400 µM (≈ 369 µg/mL) |  | Cc1c(C)c(S(=O)(=O)NC(=N)NCCCC[C@H](NC(=O)[C@H](Cc2ccccc2)NC(=O)[C@H](Cc2ccccc2)NC(=O)OC(C)(C)C)C(=O)Cc2ccccc2)c(C)c2c1OC(C)(C)CC2 |  |
| 400 µM (≈ 265 µg/mL) | > 580 µM | CC(C)C[C@H](NC(=O)[C@H](Cc1ccccc1)NS(=O)(=O)Cc1ccccc1)C(=O)N[C@@H](CCCNC(=N)N)C(=O)Cc1ccccc1 |  |
| 400 µM (≈ 398 µg/mL) |  | Cc1c(C)c(S(=O)(=O)NC(=N)NCCCC[C@H](NC(=O)[C@H](CC(C)C)NC(=O)[C@H](Cc2ccc(OCc3ccccc3)cc2)NC(=O)OC(C)(C)C)C(=O)Cc2ccccc2)c(C)c2c1OC(C)(C)CC2 |  |
| 400 µM (≈ 369 µg/mL) |  | Cc1c(C)c(S(=O)(=O)NC(=N)NCCCC[C@H](NC(=O)[C@H](Cc2ccccc2)NC(=O)[C@@H](Cc2ccccc2)NC(=O)OC(C)(C)C)C(=O)Cc2ccccc2)c(C)c2c1OC(C)(C)CC2 |  |
| 400 µM (≈ 406 µg/mL) |  | CC(=O)N[C@@H](Cc1ccc(OCc2ccccc2)cc1)C(=O)N[C@H](C(=O)N[C@@H](CCCCNC(=N)NS(=O)(=O)c1c(C)c(C)c2c(c1C)CCC(C)(C)O2)C(=O)Cc1ccccc1)[C@@H](C)OCc1ccccc1 |  |
| 400 µM (≈ 356 µg/mL) |  | Cc1c(C)c(S(=O)(=O)NC(=N)NCCCC[C@H](NC(=O)[C@H](CC(C)C)NC(=O)[C@H](Cc2ccccc2)NC(=O)OC(C)(C)C)C(=O)Cc2ccccc2)c(C)c2c1OC(C)(C)CC2 |  |
| 400 µM (≈ 279 µg/mL) | 26 µM | N=C(N)NCCC[C@H](NC(=O)[C@H](Cc1ccccc1)NC(=O)[C@H](Cc1ccccc1)NS(=O)(=O)Cc1ccccc1)C(=O)Cc1ccccc1 | Ki (Coagulation factor VII [3]): 43 µM |
| 400 µM (≈ 383 µg/mL) |  | Cc1c(C)c(S(=O)(=O)NC(=N)NCCCC[C@H](NC(=O)[C@H](Cc2ccccc2)NC(=O)[C@H](Cc2ccccc2)NC(=O)OCc2ccccc2)C(=O)Cc2ccccc2)c(C)c2c1OC(C)(C)CC2 |  |
| 400 µM (≈ 234 µg/mL) | > 400 µM | CC(=O)N[C@@H](Cc1ccccc1)C(=O)N[C@@H](Cc1ccccc1)C(=O)N[C@@H](CCCNC(=N)N)C(=O)Cc1ccccc1 |  |
